Results: a melting point compilation (Tetko et al.; mined from patent text by program, amines drawn as free bases though some values may be those of a salt)

| melting point [°C] | Structure (SMILES) |
| --- | --- |
| 147 | CSC12SCC(COC(C)=O)(OS(C)(=O)=O)C(C(=O)OCc3ccc([N+](=O)[O-])cc3)N1C(=O)C2N=[N+]=[N-] (stereo not given) |
| 135 to 136 | COC(=O)c1cccc2nc(SCCCN3CCN(CC(=O)Nc4c(C(C)C)cccc4C(C)C)CC3)oc12 |
| 244 to 246 | Cc1ccn2c(C)c(CCc3ccc4nc(N)oc4c3)nc2c1 |
| 188 to 192 | CC(C)(C)OC(=O)N1CCC(c2cc(F)c3oc(-c4ccc(S(C)(=O)=O)cc4F)nc3c2)CC1 |
| 202 to 203 | CC1(C)Oc2ccc(C#N)cc2[C@@H](n2cnccc2=O)[C@@H]1O (relative stereo) |
| 157 to 158 | Fc1ccc(-c2nc(S)ncc2CCN2CCC(=Cc3ccccc3F)CC2)cc1 |
| 80 to 82 | O=C(Cl)N1CC(Oc2ccccc2Cl)C1 |
| 216 to 217 | CC(=O)Oc1cn(Cc2c(F)cccc2F)c2sc(-c3ccc([N+](=O)[O-])cc3)c(C)c2c1=O |
| 196 to 198 | Cc1cccc2c3c(n(Cc4ccc(Cl)cc4)c12)C(CC(=O)O)CCC3 (single isomer, unassigned; (-)) |
| 207 to 208 | C[Si](C)(C)c1ccc2c(c1)cc(C(=O)Nc1ccc(N3CC(O)C3)nc1)n2Cc1cccc(F)c1 |
| 94 to 96 | O=Cc1cc(OCc2ccccc2)ccc1O |
| 85 to 90 | Cc1c(C(O)C2CCc3cc4ccccc4n3C2=O)ncn1C(c1ccccc1)(c1ccccc1)c1ccccc1 (stereo not given) |
| 188 | O=C(O)CN1C(=O)C(=O)N(Cc2cccc([N+](=O)[O-])c2)C1=S |
| 202 to 203 | O=C(O)c1ccc(Sc2ccc(C(=O)O)c(C(=O)O)c2)cc1C(=O)O |
| 208 to 210 | Nc1ccc(S(=O)(=O)N2CCN(c3ccccn3)CC2)cc1 |
| 140 to 142 | COCCN1CCN(Cc2ccc3c(c2)-c2[nH]nc(-c4ccsc4)c2C3)CC1 |
| 168 to 170 | COc1ccc(C(=O)N2CCN(c3ccc(N)c(C=CC(=O)O)c3)CC2)cc1OC |
| 121 to 122 | CCCCN1CCN(c2nsc3nc4ccccc4n23)CC1 |
| 215 to 216 | CSc1nc(=O)n(Cc2ccccc2)c2nc[nH]c12 |
| 98 to 109 | c1ccc(-c2coc3c2ccc2ccccc23)cc1 |
| 165 to 166 | Cc1cn2c(n1)Cc1cc3c(cc1C(c1ccc(N)cc1)=N2)OCO3 |
| 125 to 127 | COc1ccc(-c2nc(Sc3ccc(Cl)c(Cl)c3)n(C3CCCCO3)c2-c2ccc(OC)cc2)cc1 (stereo not given) |
| 139 to 141 | COC(=O)c1cc(Cl)c2cccc(OC)c2n1 |
| 177 | CC(C)c1ccc(-c2nc(Cl)c(C=O)n2Cc2ccc(-c3ccccc3S(=O)(=O)N=CN(C)C)cc2)cc1 |
| 140 | OC1CCc2[nH]c3ccccc3c2C1 (stereo not given) |
| 189 to 190 | Cc1ccc(S(=O)(=O)c2cn(S(=O)(=O)c3ccccc3)c3ccccc23)cc1 |

| melting point [°C] | Structure (SMILES) |
| --- | --- |
| 157 to 158 | O=C(O)COc1ccc(CCNS(=O)(=O)c2ccccc2)cc1 |
| 172 | COc1c(Cl)cc(C(=O)O)c2c1OCCO2 |
| 280 | NS(=O)(=O)c1nnc(NC(=O)c2cnn3c(C(F)(F)F)cc(-c4ccc(C(F)(F)F)cc4)nc23)s1 |
| 133 to 134 | O=C1N(c2ccccc2)CC(CCl)C1(Cl)Cl (stereo not given) |
| 108 to 111 | COC(=O)C(N)Cc1ccc(OCc2nc3ccc(OC)cc3n2C)cc1 (stereo not given) |
| 236 to 238 | O=c1[nH]c2ccccc2c(=O)n1C1CCCCC1 |
| 162 to 167 | Cn1nc2c(-c3ccc(Cl)cc3Cl)cccc2c1C1=NCCO1 |
| 266 to 267 | O=c1[nH]ccc2cc(S(=O)(=O)N3CCCNCC3)ccc12 |
| 83 | COc1ccccc1S(=O)(=O)OC(Cl)C(=O)c1ccccc1 (stereo not given) |
| 225 to 226 | NC(=O)NN=Cc1ccc(Oc2ccc3c(c2)OCO3)cc1 |
| 280 to 281 | O=C(Nc1ccc(-n2nc(C3CC3)cc2C2CC2)c(F)c1)c1c(Cl)cncc1Cl |
| 220 to 222 | CSc1cc(C)c(C(=O)N=C(N)N)cc1S(C)(=O)=O |
| 139 to 140 | CS(=O)(=O)c1ccc(-c2cc3cccccc-3c2-c2ccccc2)cc1 |
| 148 to 150 | C/C(=C(\C#N)C(=S)/N=C/N(C)C)N1CCCN(c2ccc(F)c(C)c2)CC1 |
| 195 to 196 | COc1ccc2c(c1)C(=O)c1c-2cnc2ccccc12 |
| 125 to 128 | N#CCc1c(Cl)nc(-c2ccc([N+](=O)[O-])cc2)n1Cc1ccccc1 |
| 88 to 90 | CN1CCN(C2=Nc3ccccc3N(C)c3sc4ccccc4c32)CC1 |
| 184 to 186 | COc1cccc(N2CCN(CCn3c(=O)[nH]c4cscc4c3=O)CC2)c1 |
| 192 | O=C(CCCCCOc1ccc2c(c1)[nH]c1ccccc12)NO |
| 174 to 175 | O=C(CN1CSCC1=O)N1CCC(c2c[nH]c3ccccc23)CC1 |
| 108 to 110 | CCCCn1c(=O)n(Cc2ccccc2)c(=O)c2c(Cl)cc(Cl)cc21 |
| 110 | C(=Cc1ccccc1)CN1CCN(C(c2ccccc2)c2ccccc2)CC1 |
| 199 to 205 | Cn1c(COc2ccc(CC3SC(=O)NC3=O)cc2)nc2ccc(Oc3ccc4cccc(NC(=O)NS(=O)(=O)c5ccccc5)c4c3)cc21 (stereo not given) |
| 133 to 134 | O=Cc1cn(Cc2ccc(Cl)cc2)nc1CN1CCC(c2ccccc2)(c2ccccc2)CC1 |
| 200 to 202 | Cc1ccc2c(c1)c1c(n2C(=O)c2ccccc2)CCC(C(=O)O)C1 (stereo not given) |

More lines, now with the values behind:

| Structure (SMILES) | melting point [°C] |
| --- | --- |
| CCOC(=O)Cc1cnn(C)c1O | 104 to 105 |
| COc1cc(COc2nn(-c3ccccc3)cc2/C=C/CO)ccc1OCc1nc(-c2ccco2)oc1C | 120 to 121 |
| CN=C(NC#N)NCCSCc1[nH]cnc1Br | 144 to 146 |
| CCCCN=C(CS(C)=O)c1cc2ccccc2cc1O (stereo not given) | 162 to 164 |
| CCCc1cccc(-c2nc(C)cc(Cl)n2)n1 | 77.1 |
| Cn1cc(-c2ccccc2)c(=S)c(-c2ccccc2)n1 | 122 to 123 |
| COc1ccc(OC)c(P(=O)(C(=O)c2c(C)cc(C)cc2C)C(=O)c2c(C)cc(C)cc2C)c1 | 161 |
| Cc1ccc(C(=O)NC(NC(=O)Nc2ccccc2F)C(Cl)(Cl)Cl)cc1 (stereo not given) | 257 to 259 |
| Nc1nnc(-c2ccc3occ(-c4cccc(OC(F)(F)F)c4)c3c2)o1 | 182 to 183 |
| N#Cc1cc(Cn2cncn2)cc(-c2ccccc2)c1 | 109 to 110 |
| N#Cc1c(-c2cccc(C(=O)NCCO)c2)cc(-c2ccccc2O)nc1NC(=O)c1cccs1 | 218 to 219 |
| Cc1ccc2c(CCNCC#N)c[nH]c2c1 | 92 |
| Cc1csc2c(Br)c(C=O)sc12 | 127 to 129 |
| C1=COc2ccccc2O1 | 59 to 61 |
| CC(C)=CCCC(C)CCS(=O)c1nc2ccccc2[nH]1 (single isomer, unassigned; (+)) | 122 to 124 |
| Cc1nc(C)c(I)nc1C | 59 to 63 |
| CNC(=O)Nc1ccc(Cl)cc1Cl | 214 |
| CC#CCOc1ccc(S(=O)C(C(=O)NO)c2ccccc2)cc1 (stereo not given) | 55 |
| COc1cc([N+](=O)[O-])c(CCC(=O)O)c([N+](=O)[O-])c1O | 195 |
| Cc1oc2c(C(O)CN)cccc2c1C (stereo not given) | 73 |
| CC(C)Oc1ccc(/C=C/C=C/CO)cc1 | 91 to 92 |
| CC(C)[C@H](OCc1ccccc1F)[C@H]1[C@H]([N+](=O)[O-])[C@H](c2ccccc2)N[C@@H]1C(=O)NCC(=O)O | 72 to 73 |
| C=CCOc1cc(C=CNC(=O)OC)ccc1OCC(O)CNC(C)C (stereo not given) | 91 to 92 |
| CC(C)C(=O)Nc1ccc(C(=O)O)cc1N | 159 to 160 |
| Cn1c([N+](=O)[O-])cnc1-c1cc(C(N)=O)on1 | 235 to 238 |

| Structure (SMILES) | melting point [°C] |
| --- | --- |
| CC(=O)C(=Cc1ccc(Cl)c(Cl)c1)C(C)=O | 73 |
| CCCc1nn(-c2ccc(C(F)(F)F)cn2)cc1CCCCOc1ccc(CC(=O)O)cc1 | 121 to 122 |
| CCCSc1nc(C)c(CO)n1-c1ccccc1Cl | 98 to 101 |
| COC(=O)CCC(=O)c1cc(OC)ccc1OCC(O)CNC(C)(C)C (stereo not given) | 70 to 72 |
| C=Cc1ccc(Nc2c(C(=O)NOCCO)ccc(F)c2F)c(F)c1 | 134 to 137 |
| NC1=CC(=O)C(N)=C(CCCCCC2=C(N)C(=O)C=C(N)C2=O)C1=O | > 250 |
| COc1ccc(Cl)cc1C(=O)NCCc1ccc(-c2ccc(O)cc2)cc1 | 169 |
| CC(C)(C)c1cc(I)c2c(c1)C=NS(=O)(=O)O2 | 130 to 134 |
| CCn1c(=O)c(C)cc2cnc(SC)nc21 | 84 to 86 |
| O=C(O[C@H]1Cc2c(O)cc(O)cc2O[C@@H]1c1ccc(O)c(O)c1)c1cc(O)c(O)c(O)c1 | 105 to 107 |
| CCN(CC)C(=O)COc1nc(C(F)(F)F)ns1 | 60 |
| CCCCC(=O)N(Cc1ccc(-c2ccccc2-c2nnn[nH]2)cc1)C(C(=O)OCc1ccccc1)C(C)C (stereo not given) | 106 to 108 |
| CCCCCC(C)C(C)c1cc(OC)c2c(c1)OC(C)(C)C1=C2CN(C(N)=NO)CC1 (stereo not given) | 176 to 178 |
| CC(C)c1ccc(NC(=N)c2cccc(NC(=O)C=Cc3ccccc3Cl)c2)cc1 | 112 to 118 |
| CC(C)(C)c1cc(-c2ccccc2)c(Oc2cccc(C#N)c2C#N)c(-c2ccccc2)c1 | 189 to 192 |
| Nc1nn(-c2ccccc2)cc1CO | 127 to 128 |
| CC(=O)Nc1cccc2c1CCN(C)C2 | 138 to 139 |
| FC(F)(F)CN1CCN=C(c2ccccc2)c2cc(Cl)ccc21 | 164 to 165 |
| CCCCC1=CC(=C(Br)Br)OC1=O | 48 to 49 |
| CN(C(=S)Nc1ccccc1)C1CCN(CCc2c[nH]c3ccccc23)CC1 | 194 |
| Cc1nnc2n1-c1sc(C#CCCN3C(=O)c4cccc5cccc(c45)C3=O)cc1C(c1ccccc1Cl)=NC2 | 175 to 179 |
| CC(C)(C)NCC(O)COc1cccc2nc[nH]c12 (stereo not given) | 203 to 205 |
| CCOC(=O)CC(NC(=O)c1ccc(Cl)cc1)C(=O)c1cccs1 (stereo not given) | 112 to 113 |
| CCOC(=O)c1cccc([N+](=O)[O-])c1NCc1ccc(-c2ccccc2C#N)cc1 | 119 to 120 |
